Measurements as given in article PMC8080777, “Discovery, optimization, and evaluation of non-bile acid FXR/TGR5 dual agonists” (Scientific Reports, 2021).
“Also recorded” adds a separate entry of the source.

Assays:
TGR5 = biological target: T1, TGR5 (Homo sapiens, UniProt Q8TDU6); assay: TGR5 cAMP assay in CHO cells transfected with TGR5 (cAMP Hunter eXpress, Discover X); assay type: cell-based
T1 construct: host or cells: CHO cells
T1 sequence (Q8TDU6 1-330): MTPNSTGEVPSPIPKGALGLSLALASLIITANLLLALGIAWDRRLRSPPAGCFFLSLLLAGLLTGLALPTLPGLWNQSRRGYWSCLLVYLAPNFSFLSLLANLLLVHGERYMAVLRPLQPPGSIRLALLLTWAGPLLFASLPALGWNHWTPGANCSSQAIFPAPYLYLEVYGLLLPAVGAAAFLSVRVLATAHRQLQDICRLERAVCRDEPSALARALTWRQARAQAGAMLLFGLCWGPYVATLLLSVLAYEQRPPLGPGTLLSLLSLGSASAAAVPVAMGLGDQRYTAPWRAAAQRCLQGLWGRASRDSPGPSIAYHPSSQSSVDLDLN
Method: TGR5 agonist activity was evaluated by transfecting CHO cells with TGR5 using the Discover X expression kit (cAMP Hunter eXpress GPCR Assay, Discover X Fremont, CA). Cells were incubated with test compounds for 0.5 h, and intracellular cAMP levels were measured using the multi-mode microplate reader.
(§1) TGR5 agonist activity was evaluated by transfecting CHO cells with TGR5 using the Discover X expression kit (cAMP Hunter eXpress Assay Kit, Discover X Fremont, CA, USA). Cells were incubated with the test compounds for 0.5 h, and intracellular cAMP levels were measured using Multi-Mode Microplate Reader (FlexStation 3, Molecular Devices Inc., San Jose, CA, USA).
Each compound was tested at concentrations of 10, 1, or 0.1 µM in duplicate (n = 2), with the average value shown.
S4. In vitro, in vivo assay, and selectvity. […]
In vitro TGR5 agonist assay protocol
as §1
Each compound was tested at concentrations of 10, 1, or 0.1 µM in duplicate (n=2), with the […]
parameter logistic equation, Y = min + (max - min)/(1 + 10^(n * (log10(EC50) - log10(conc)))), in […]

FXR = biological target: T2, FXR (Homo sapiens, UniProt Q96RI1); assay: CHO cell-based FXR luciferase reporter assay (Indigo Biosciences); settings: for FXR Efficacy (%) (1 µM) / FXR Efficacy (%) (10 µM): % vs OCA 1 µM as 100%
T2 construct: host or cells: CHO cells
T2 sequence (Q96RI1 1-486): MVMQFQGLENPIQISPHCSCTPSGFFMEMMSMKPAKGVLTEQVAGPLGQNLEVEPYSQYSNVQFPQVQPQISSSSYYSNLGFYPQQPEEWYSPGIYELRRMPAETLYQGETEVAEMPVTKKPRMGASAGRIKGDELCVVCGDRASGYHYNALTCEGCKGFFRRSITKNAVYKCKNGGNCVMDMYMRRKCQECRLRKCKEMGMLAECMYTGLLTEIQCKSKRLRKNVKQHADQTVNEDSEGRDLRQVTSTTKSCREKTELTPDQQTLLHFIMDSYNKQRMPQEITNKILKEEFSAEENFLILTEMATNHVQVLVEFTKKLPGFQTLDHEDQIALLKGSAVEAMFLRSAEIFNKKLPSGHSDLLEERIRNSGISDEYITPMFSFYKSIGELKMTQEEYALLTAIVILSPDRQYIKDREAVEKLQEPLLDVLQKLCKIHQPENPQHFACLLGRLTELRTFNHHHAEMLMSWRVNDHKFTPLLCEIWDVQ
Method: To evaluate direct agonist activities against FXR, test compounds were evaluated using a CHO cell-based FXR assay by Indigo Biosciences (State College, PA), in which cells were transfected with an FXR luciferase reporter system.
To directly evaluate the in vitro agonist activity towards FXR, test compounds were evaluated in CHO cells transfected with FXR responsive luciferase reporter (Nuclear Receptor & In Vitro Toxicology Solutions, Indigo Biosciences, State College, PA, USA). […] Each compound was tested in duplicate, and the average value was reported[35],[36].
(§2) The cell recovery medium (CRM, Human Farnesoid X Receptor (NR1H4, FXR reporter assay system, Indigo Biosciences, State College, PA, USA) and compound screening medium (CSM, Human Farnesoid X Receptor (NR1H4, FXR reporter assay system, Indigo Biosciences, State College, PA, USA) were removed from the freezer and thawed in a water bath at 37 °C. Test compounds were dissolved in dimethyl sulfoxide (DMSO, FUJIFILM Wako Pure Chemical Corporation, Osaka city, Osaka, Japan), and the treatment medium was prepared and diluted with CSM to achieve a final concentration of 0.2% total DMSO. The reporter cells were thawed by transferring 3.3 mL CRM at 37 °C into tubes of frozen cells. The tube containing reporter cells was recapped, and it was immediately place in a 37 °C water bath for 5 min. The reporter cells were gently inverted several times, and 100 µL cell suspension was dispensed into each well. One hundred microliters of treatment media was added into wells. Subsequently, the assay plate was kept at 37 °C, and it was incubated with 5% CO2 for 22 h. To prepare luciferase detection reagent (LDR), the detection substrate was gently mixed with detection buffer, media contents were removed from each well, and 100 µL LDR was added to each well of the assay plate. The assay plate was allowed to rest at room temperature for 5 min, and luminescence was quantified using the Multi-Mode Microplate Reader (FlexStation 3, Molecular Devices Inc., San Jose, CA, USA)[36].
S4. In vitro, in vivo assay, and selectvity.
To directly evaluate the in vitro agonist activity towards FXR, test compounds were evaluated in CHO cells transfected with FXR responsive luciferase reporter (Nuclear Receptor & In Vitro Toxicology Solutions, Indigo Biosciences, State College, PA, USA). Cells were incubated with […]
(FlexStation 3, Molecular Devices Inc., San Jose, CA, USA). Efficacies are reported relative to […]
reporter on of 1 µM. Each compound was tested in duplicate, and the average value was […]
as §2, with “sulfoxide (DMSO ,” for “sulfoxide (DMSO,”, “Osaka, Jap an),” for “Osaka, Japan),”, “a 37°C” for “a 37 °C”, “5% CO 2” for “5% CO2”, “using […]” for “using the Multi-Mode Microplate Reader (FlexStation 3, Molecular Devices Inc., San Jose, CA, USA)[36].”

Row | TGR5 agonist activity (in words) (TGR5) | TGR5 Efficacy (%) (10 µM) (TGR5; % vs INT-767 10 µM as 100%) | FXR Efficacy (%) (1 µM) (FXR) | FXR Efficacy (%) (10 µM) (FXR) | Structure (SMILES) | FXR agonist activity (in words) (FXR) | TGR5 Efficacy (%) (0.1 µM) (TGR5; 0.1 µM, % vs INT-767 10 µM as 100%) | TGR5 Efficacy (%) (1 µM) (TGR5; 1 µM, % vs INT-767 10 µM as 100%)
1 | inactive against TGR5 | -3.1% | 24.6% | 100.2% | COC(=O)/C=C/c1cccc(N(Cc2ccc(-c3ccc(N(C)C)cc3)cc2)C(=O)c2ccncc2C)c1 [Compound 13a] | strong FXR agonist activity with full efficacy |  | 
2 | inactive against TGR5 | -2.8% | 16.7% | 86.9% | COC(=O)/C=C/c1cccc(N(Cc2ccc(-c3ccc(N(C)C)cc3)cc2)C(=O)c2ccncc2)c1 [Compound 13b] |  |  | 
3 |  | 1.7% |  | 68.1% | COC(=O)/C=C/c1cccc(N(Cc2ccc(-c3ccc(N(C)C)cc3)cc2)C(=O)c2cccnc2)c1 [Compound 13c] |  |  | 
4 |  | 0.0% | 24.5% | 88.9% | COC(=O)/C=C/c1cccc(N(Cc2ccc(-c3ccc(N(C)C)cc3)cc2)C(=O)c2ccccc2)c1 [Compound 13d] |  |  | 
5 | strong TGR5 agonist activity | 87.5% | 2.0% |  | Cc1cnccc1C(=O)N(Cc1ccc(-c2ccc(N(C)C)cc2)cc1)c1ccc(F)cc1C [Compound 13e] |  |  | 
6 |  | 32.0% | 0.5% |  | Cc1cc(F)ccc1N(Cc1ccc(-c2ccc(N(C)C)cc2)cc1)C(=O)c1ccncc1 [Compound 13f] |  |  | 
7 |  | 0.8% | 1.2% |  | Cc1cc(F)ccc1N(Cc1ccc(-c2ccc(N(C)C)cc2)cc1)C(=O)c1cccnc1 [Compound 13g] |  |  | 
8 |  | 0.2% | 25.3% |  | COC(=O)/C=C/c1ccc(C)c(N(Cc2ccc(-c3ccc(N(C)C)cc3)cc2)C(=O)c2ccncc2C)c1 [Compound 13h] |  |  | 
9 | weak FXR/TGR5 dual agonist activity | 47.2% | 32.1% |  | COC(=O)/C=C/c1cccc(N(Cc2ccc(-c3ccc(N(C)C)cc3)cc2)C(=O)c2ccncc2C)c1C [Compound 13i] | weak FXR/TGR5 dual agonist activity |  | 
10 | dual potencies against both FXR and TGR5 | 47.4% | 75.9% |  | Cc1cnccc1C(=O)N(Cc1ccc(-c2ccc(N(C)C)cc2)cc1)c1cc(Cl)cc(Br)c1 [Compound 13k] | dual potencies against both FXR and TGR5 |  | 
11 |  | 48.5% | 37.6% |  | Cc1cc(C)cc(N(Cc2ccc(-c3ccc(N(C)C)cc3)cc2)C(=O)c2ccncc2C)c1 [Compound 13l] |  |  | 

Second part, the molecule before the results:

Row | Structure (SMILES) | TGR5 agonist activity (in words) (TGR5) | TGR5 Efficacy (%) (10 µM) (TGR5; % vs INT-767 10 µM as 100%) | FXR Efficacy (%) (1 µM) (FXR) | FXR Efficacy (%) (10 µM) (FXR) | FXR agonist activity (in words) (FXR) | TGR5 Efficacy (%) (0.1 µM) (TGR5; 0.1 µM, % vs INT-767 10 µM as 100%) | TGR5 Efficacy (%) (1 µM) (TGR5; 1 µM, % vs INT-767 10 µM as 100%)
12 | COc1cnccc1C(=O)N(Cc1ccc(-c2ccc(N(C)C)cc2)cc1)c1cc(Cl)cc(Cl)c1 [Compound 13aa] | weak dual agonist activity | 21.5% | 68.6% |  | weak dual agonist activity |  | 
13 | CN(C)c1ccc(-c2ccc(CN(C(=O)c3ccnnc3)c3cc(Cl)cc(Cl)c3)cc2)cc1 [Compound 13ab] | did not have any activity against either FXR or TGR5 | -12% | 0.5% |  | did not have any activity against either FXR or TGR5 |  | 
14 | CN(C)c1ccc(-c2ccc(CN(C(=O)c3ccccc3Cl)c3cc(Cl)cc(Cl)c3)cc2)cc1 [Compound 13ac] |  | 0.2% | 84.3% |  | strong FXR activities |  | 
15 | CN(C)c1ccc(-c2ccc(CN(C(=O)C3CCC(O)CC3)c3cc(Cl)cc(Cl)c3)cc2)cc1 (stereo not drawn) [Compound 13ae] |  | -1.5% | 101.4% |  | strong FXR activities |  | 
16 | CN(C)c1ccc(-c2ccc(CN(C(=O)c3ccc(O)cc3Cl)c3cc(Cl)cc(Cl)c3)cc2)cc1 [Compound 13af] |  | -0.2% | 108.2% |  | strong FXR activities |  | 
17 | COc1ccc(C(=O)N(Cc2ccc(-c3ccc(N(C)C)cc3)cc2)c2cc(Cl)cc(Cl)c2)c(Cl)c1 [Compound 13ag] | significantly low potency against TGR5 | 1.1% | 136.5% |  | strong FXR activities |  | 
18 | Cc1cnccc1C(=O)N(Cc1ccc(-c2ccccc2)cc1)c1cc(Cl)cc(Cl)c1 [Compound 13ah] | TGR5 full agonist | 118.6% | 17.7% |  |  |  | 
19 | Cc1cnccc1C(=O)N(Cc1ccc(-c2ccc(N(C)C)cc2)cc1)c1cc(Cl)cc(Cl)c1 [Compound 13j] | potent FXR/TGR5 dual agonist activity; also recorded: dual potencies against both FXR and TGR5 | 59.7% | 62.1% |  | potent FXR/TGR5 dual agonist activity; also recorded: dual potencies against both FXR and TGR5 |  | 
20 | COC(=O)/C=C/c1cc(Cl)cc(N(Cc2ccc(-c3ccc(N(C)C)cc3)cc2)C(=O)c2ccncc2C)c1 [Compound 13m] |  | 6.7% | 72.5% |  |  |  | 
21 | CCC1C(O)C2C3CCC(C(C)CCOS(=O)(=O)O)C3(C)CCC2C2(C)CCC(O)CC12 (stereo not drawn) [INT-767, reference compound] |  | 100% |  |  |  | 1.7% | 25.5%
